How the values were obtained:
BTK = BTK (Homo sapiens, UniProt Q06187); experiment: 33P-ATP radiometric filter binding kinase panel; conditions: read-out: % activity remaining
Description: (§1) targets in radiometric filter binding assay using 33P-ATP at the MRC PPU International Centre for

MARK4 = molecular target: T1, MARK4 (Homo sapiens, UniProt Q96L34); experiment: 33P-ATP radiometric filter binding kinase panel; conditions: read-out: % activity remaining
T1 sequence (Q96L34 1-752): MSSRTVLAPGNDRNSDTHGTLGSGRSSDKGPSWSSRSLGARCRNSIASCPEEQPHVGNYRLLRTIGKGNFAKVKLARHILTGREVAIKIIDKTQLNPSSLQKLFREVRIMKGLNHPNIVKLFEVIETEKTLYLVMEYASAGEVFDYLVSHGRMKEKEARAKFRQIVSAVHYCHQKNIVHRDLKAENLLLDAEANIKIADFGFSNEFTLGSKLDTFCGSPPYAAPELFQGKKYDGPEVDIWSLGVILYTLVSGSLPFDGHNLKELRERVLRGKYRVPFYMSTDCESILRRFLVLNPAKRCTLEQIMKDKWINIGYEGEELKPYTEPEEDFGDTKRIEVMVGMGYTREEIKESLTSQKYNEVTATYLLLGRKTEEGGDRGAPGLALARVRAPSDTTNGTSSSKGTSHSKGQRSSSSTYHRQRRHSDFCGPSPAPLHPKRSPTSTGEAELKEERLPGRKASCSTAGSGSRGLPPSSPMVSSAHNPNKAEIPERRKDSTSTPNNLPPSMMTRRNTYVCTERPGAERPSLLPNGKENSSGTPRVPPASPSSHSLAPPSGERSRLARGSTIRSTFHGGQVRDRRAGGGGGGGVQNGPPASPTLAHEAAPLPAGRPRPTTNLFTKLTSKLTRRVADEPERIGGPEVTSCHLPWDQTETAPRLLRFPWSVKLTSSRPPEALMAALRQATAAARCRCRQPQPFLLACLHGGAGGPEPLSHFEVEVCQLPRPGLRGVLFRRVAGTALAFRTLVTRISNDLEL
Description: as §1

SGK1 = SGK1 (Homo sapiens, UniProt O00141); experiment: 33P-ATP radiometric filter binding kinase panel; conditions: read-out: % activity remaining
Description: as §1

CAMK1 = CAMK1 (Homo sapiens, UniProt Q14012); experiment: 33P-ATP radiometric filter binding kinase panel; conditions: read-out: % activity remaining
ROCK 2 = ROCK 2 (Homo sapiens, UniProt O75116); experiment: 33P-ATP radiometric filter binding kinase panel; conditions: read-out: % activity remaining
BRK = BRK (Homo sapiens, UniProt Q13882); experiment: 33P-ATP radiometric filter binding kinase panel; conditions: read-out: % activity remaining
Description: as §1

TSSK1 = TSSK1 (Homo sapiens, UniProt Q9BXA7); experiment: 33P-ATP radiometric filter binding kinase panel; conditions: read-out: % activity remaining
Description: as §1

ERK8 = ERK8 (Homo sapiens, UniProt Q8TD08); experiment: 33P-ATP radiometric filter binding kinase panel; conditions: read-out: % activity remaining
Description: as §1

SRPK1 = SRPK1 (Homo sapiens, UniProt Q96SB4); experiment: 33P-ATP radiometric filter binding kinase panel; conditions: read-out: % activity remaining
TBK1 = TBK1 (Homo sapiens, UniProt Q9UHD2); experiment: 33P-ATP radiometric filter binding kinase panel; conditions: read-out: % activity remaining
Description: as §1

LKB1 = LKB1 (Homo sapiens, UniProt Q15831); experiment: 33P-ATP radiometric filter binding kinase panel; conditions: read-out: % activity remaining
Description: as §1

IKKb = IKKb (Homo sapiens, UniProt O14920); experiment: 33P-ATP radiometric filter binding kinase panel; conditions: read-out: % activity remaining
Description: as §1

TAO1 = TAO1 (Homo sapiens, UniProt Q7L7X3); experiment: 33P-ATP radiometric filter binding kinase panel; conditions: read-out: % activity remaining
RIPK2 = RIPK2 (Homo sapiens, UniProt O43353); experiment: 33P-ATP radiometric filter binding kinase panel; conditions: read-out: % activity remaining
MNK1 = MNK1 (Homo sapiens, UniProt Q9BUB5); experiment: 33P-ATP radiometric filter binding kinase panel; conditions: read-out: % activity remaining
[1] = Microsomal stability (Cyprotex); conditions: mouse, liver microsomes
Protocol: ADMET and PK experimental methods
(§2) Microsomal stability: analysis was performed by Cyprotex Discovery. Briefly, test compounds in
(§3) (0.5 mg protein/mL) in the presence of NADPH (1 mM) at 37 °C. Aliquots were taken at time intervals
(§4) MS/MS conditions for compound remaining, allowing the determination of the half-life for the
(§5) MDR1-MDCK Permeability (bi-directional): was performed by Cyprotex Discovery. Briefly,
(§6) compounds were administered at 10 µM (1% DMSO final) to the apical or basolateral side of a
(§7) confluent monolayer of MDR1- MDCK cells, then incubated at 37 °C for 60 minutes before appearance
(§8) on the opposite side of the monolayer was determined LC-MS/MS. The efflux ratio (ER) is calculated
(§9) from the ratio of B-A to A-B permeabilities.
(§10) Plasma protein binding: was performed by ChemPartner Co. Ltd. Briefly, compounds in DMSO
(§11) (1 µM, 0.2% DMSO final) were added to mouse plasma or brain tissue and dialysed against buffer for
(§12) 5 hrs at 37 °C. The compound concentration in each of the plasma and buffer compartments was
(§13) determined by mass spectrometry and used to calculate the percentage compound bound.
(§14) Pharmacokinetic analysis: was performed by ChemPartner Co. Ltd. Male CD-1 mice (N=3 per
(§15) timepoint) were intraperitoneally dosed at 5 mg/kg, as a cassette of five compounds, formulated in 10%
(§16) DMSO, 10% Solutol HS 15, 80% (50 mM citrate buffer pH3.0) at 0.5 mg/mL. At the designated time
(§17) points a blood sample was collected from the facial vein into K2EDTA tubes, and plasma separated by
(§18) centrifugation. Mice were euthanised by CO2 inhalation and brains were dissected and homogenised.
(§19) Compound levels were quantified by LC-MS/MS and PK parameters estimated by a non-compartmental
model using WinNonlin 8.2.

DAPK1 = DAPK1 (Homo sapiens, UniProt P53355); experiment: 33P-ATP radiometric filter binding kinase panel; conditions: read-out: % activity remaining
Description: as §1

IRR = IRR (Homo sapiens, UniProt P14616); experiment: 33P-ATP radiometric filter binding kinase panel; conditions: read-out: % activity remaining
Description: as §1

PHK = experiment: 33P-ATP radiometric filter binding kinase panel; conditions: 1 μM
Description: as §1

CDK4/cyclin D1 = CDK4/cyclin D1 (Homo sapiens, UniProt P11802); experiment: Adapta screening assay (Thermo Fisher); conditions: read-out: CDK4/D1 % inhibition at 1 μM
Protocol: CDK2/cyclin A: Z′-LYTE™ screening assay performed by Thermo Fisher Scientific: The 2X CDK2/cyclin A / Ser/Thr 12 mixture is prepared in 50 mM HEPES pH 7.5, 0.01% BRIJ-35, 10 mM
2 µM Ser/Thr 12 in 50 mM HEPES pH 7.5, 0.01% BRIJ-35, 10 mM MgCl2, 1 mM EGTA. After the 1
CDK4/cyclin D1: Adapta™ screening assay was performed by Thermo Fisher Scientific. The 2X CDK4/cyclin D1 / Rb Substrate mixture is prepared in 50 mM HEPES pH 7.5, 0.01% BRIJ-35, 10 mM MnCl2, 1 mM EGTA, 2 mM DTT, 0.02% NaN3. The final 10 µL Kinase Reaction consists of 7.5 - 30
0.5 mM EGTA, 1 mM DTT, 0.01% NaN3. After the 1 hour Kinase Reaction incubation, 5 µL of
CDK6/cyclin D1: Adapta™ screening assay was performed by Thermo Fisher Scientific. The 2X CDK6/cyclin D1 / Rb Substrate mixture is prepared in 50 mM HEPES pH 7.5, 0.01% BRIJ-35, 10 mM
MnCl2, 1 mM EGTA, 2 mM DTT, 0.02% NaN3.
All single point assay determinations carried out in duplicate.

MINK1 = MINK1 (Homo sapiens, UniProt Q8N4C8); experiment: 33P-ATP radiometric filter binding kinase panel; conditions: read-out: % activity remaining
Description: as §1

MEKK1 = MEKK1 (Homo sapiens, UniProt Q13233); experiment: 33P-ATP radiometric filter binding kinase panel; conditions: read-out: % activity remaining
Description: as §1

PDK1 = PDK1 (Homo sapiens, UniProt O15530); experiment: 33P-ATP radiometric filter binding kinase panel; conditions: read-out: % activity remaining
Description: as §1

MST2 = MST2 (Homo sapiens, UniProt Q13188); experiment: 33P-ATP radiometric filter binding kinase panel; conditions: read-out: % activity remaining
Description: as §1
Kinase activity s.d. pIC50 activity s.d. pIC50

MDR1 (P-gp) = experiment: MDR1-MDCK permeability, bi-directional (Cyprotex)
Protocol: ADMET and PK experimental methods
as §2, §3, §4, §5, §6, §7, §8, §9, §10, §11, §12, §13, §14, §15, §16, §17, §18, §19
model using WinNonlin 8.2.

EPH-B1 = EPH-B1 (Homo sapiens, UniProt P54762); experiment: 33P-ATP radiometric filter binding kinase panel; conditions: read-out: % activity remaining
Description: as §1

CK2 = CK2 (Homo sapiens, UniProt P68400); experiment: 33P-ATP radiometric filter binding kinase panel; conditions: read-out: % activity remaining
Description: as §1

PAK5 = PAK5 (Homo sapiens, UniProt Q9P286); experiment: 33P-ATP radiometric filter binding kinase panel; conditions: read-out: % activity remaining
Description: as §1

IRR, sequence (P14616 27-1297): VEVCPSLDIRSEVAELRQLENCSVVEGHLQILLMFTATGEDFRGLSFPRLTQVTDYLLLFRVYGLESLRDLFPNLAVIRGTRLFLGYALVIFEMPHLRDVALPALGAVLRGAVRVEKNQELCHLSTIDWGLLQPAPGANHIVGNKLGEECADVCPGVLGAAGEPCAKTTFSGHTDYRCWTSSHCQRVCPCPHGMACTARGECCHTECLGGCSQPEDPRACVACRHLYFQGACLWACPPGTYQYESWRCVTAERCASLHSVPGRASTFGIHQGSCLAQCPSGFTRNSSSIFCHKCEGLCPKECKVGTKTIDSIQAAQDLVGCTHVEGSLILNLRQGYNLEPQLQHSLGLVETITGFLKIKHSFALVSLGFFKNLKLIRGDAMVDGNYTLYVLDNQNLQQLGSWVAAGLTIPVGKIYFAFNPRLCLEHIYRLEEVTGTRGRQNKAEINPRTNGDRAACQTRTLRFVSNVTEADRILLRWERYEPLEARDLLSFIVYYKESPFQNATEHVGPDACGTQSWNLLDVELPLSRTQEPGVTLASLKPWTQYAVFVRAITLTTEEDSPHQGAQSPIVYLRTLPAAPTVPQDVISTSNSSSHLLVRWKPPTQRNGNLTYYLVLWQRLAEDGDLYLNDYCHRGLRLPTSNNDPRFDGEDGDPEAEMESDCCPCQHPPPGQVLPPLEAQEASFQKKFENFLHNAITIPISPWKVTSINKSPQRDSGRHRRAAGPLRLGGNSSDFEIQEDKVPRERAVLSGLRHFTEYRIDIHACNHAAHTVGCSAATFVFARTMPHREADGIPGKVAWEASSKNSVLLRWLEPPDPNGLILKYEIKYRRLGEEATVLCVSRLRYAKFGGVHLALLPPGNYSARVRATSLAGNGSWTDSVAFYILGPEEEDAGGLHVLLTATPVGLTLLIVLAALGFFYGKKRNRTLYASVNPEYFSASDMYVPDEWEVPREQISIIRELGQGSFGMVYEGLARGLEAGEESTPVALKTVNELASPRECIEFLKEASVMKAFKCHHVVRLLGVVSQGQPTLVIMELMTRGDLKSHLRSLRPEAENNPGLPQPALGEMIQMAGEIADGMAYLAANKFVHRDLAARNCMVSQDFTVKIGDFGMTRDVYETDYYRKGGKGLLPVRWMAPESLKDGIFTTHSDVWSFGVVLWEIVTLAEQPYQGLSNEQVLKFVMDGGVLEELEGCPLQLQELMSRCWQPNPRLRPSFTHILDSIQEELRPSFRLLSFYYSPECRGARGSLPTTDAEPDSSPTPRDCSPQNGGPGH
ROCK 2, sequence (O75116 whole entry): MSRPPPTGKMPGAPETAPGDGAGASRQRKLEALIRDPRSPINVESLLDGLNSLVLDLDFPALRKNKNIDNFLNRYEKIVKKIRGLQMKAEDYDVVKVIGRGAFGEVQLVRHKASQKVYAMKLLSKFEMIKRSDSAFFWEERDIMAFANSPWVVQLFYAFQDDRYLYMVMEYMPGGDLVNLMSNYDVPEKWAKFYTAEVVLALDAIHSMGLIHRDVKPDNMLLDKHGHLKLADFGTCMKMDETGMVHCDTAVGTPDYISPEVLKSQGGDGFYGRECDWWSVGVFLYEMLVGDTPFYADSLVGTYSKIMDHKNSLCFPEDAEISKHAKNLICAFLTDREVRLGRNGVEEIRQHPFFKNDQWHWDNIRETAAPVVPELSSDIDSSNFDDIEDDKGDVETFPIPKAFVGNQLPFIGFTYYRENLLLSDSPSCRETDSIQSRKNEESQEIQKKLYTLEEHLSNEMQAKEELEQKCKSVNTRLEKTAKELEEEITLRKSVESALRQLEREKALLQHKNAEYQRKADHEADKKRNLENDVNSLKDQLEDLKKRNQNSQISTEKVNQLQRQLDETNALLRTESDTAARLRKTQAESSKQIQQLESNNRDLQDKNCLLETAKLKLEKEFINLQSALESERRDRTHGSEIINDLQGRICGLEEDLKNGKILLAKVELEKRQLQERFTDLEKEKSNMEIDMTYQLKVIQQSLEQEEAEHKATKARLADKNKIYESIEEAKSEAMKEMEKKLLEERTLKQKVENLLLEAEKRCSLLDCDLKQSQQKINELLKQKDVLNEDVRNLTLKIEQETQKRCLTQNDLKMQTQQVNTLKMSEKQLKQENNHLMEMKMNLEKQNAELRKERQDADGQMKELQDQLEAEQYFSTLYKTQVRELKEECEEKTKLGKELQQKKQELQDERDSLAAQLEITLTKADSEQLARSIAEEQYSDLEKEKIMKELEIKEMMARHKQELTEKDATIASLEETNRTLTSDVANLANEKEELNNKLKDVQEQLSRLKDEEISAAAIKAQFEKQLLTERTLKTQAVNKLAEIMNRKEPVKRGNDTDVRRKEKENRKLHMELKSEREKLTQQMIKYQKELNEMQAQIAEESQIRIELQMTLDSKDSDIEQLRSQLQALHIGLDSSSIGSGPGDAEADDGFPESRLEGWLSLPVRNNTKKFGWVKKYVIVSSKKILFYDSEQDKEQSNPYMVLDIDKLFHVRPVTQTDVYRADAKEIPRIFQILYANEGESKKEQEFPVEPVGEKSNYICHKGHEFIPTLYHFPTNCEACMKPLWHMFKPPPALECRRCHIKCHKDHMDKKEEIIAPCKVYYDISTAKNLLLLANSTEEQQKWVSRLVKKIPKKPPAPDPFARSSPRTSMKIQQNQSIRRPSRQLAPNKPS
MNK1, sequence (Q9BUB5 whole entry): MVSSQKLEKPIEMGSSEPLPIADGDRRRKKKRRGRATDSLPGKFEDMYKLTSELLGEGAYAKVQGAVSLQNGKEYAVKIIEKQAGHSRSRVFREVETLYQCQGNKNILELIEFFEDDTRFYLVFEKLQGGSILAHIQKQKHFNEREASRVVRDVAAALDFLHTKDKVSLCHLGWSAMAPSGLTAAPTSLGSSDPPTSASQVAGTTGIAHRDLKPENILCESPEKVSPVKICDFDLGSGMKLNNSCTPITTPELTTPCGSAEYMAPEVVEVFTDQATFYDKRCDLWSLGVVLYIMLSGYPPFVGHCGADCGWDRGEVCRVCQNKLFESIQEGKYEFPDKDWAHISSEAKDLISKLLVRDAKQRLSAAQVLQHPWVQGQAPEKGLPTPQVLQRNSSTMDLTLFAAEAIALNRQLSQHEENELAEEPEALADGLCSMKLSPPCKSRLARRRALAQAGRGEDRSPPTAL
RIPK2, sequence (O43353 whole entry): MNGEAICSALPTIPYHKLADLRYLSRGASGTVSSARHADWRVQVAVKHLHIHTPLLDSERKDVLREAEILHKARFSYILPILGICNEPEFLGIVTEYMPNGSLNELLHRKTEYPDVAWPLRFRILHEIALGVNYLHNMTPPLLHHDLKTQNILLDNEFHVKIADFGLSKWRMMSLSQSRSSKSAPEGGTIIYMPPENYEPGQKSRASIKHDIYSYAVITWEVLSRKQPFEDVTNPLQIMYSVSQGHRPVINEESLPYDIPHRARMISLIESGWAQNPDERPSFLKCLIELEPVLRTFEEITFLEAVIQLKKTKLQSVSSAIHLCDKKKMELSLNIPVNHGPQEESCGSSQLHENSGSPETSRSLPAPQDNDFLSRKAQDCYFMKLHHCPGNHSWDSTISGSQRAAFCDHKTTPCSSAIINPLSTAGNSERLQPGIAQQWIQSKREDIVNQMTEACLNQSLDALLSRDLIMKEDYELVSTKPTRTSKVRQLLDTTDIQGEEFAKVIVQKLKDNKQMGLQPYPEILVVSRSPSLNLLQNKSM
ERK8, sequence (Q8TD08 whole entry): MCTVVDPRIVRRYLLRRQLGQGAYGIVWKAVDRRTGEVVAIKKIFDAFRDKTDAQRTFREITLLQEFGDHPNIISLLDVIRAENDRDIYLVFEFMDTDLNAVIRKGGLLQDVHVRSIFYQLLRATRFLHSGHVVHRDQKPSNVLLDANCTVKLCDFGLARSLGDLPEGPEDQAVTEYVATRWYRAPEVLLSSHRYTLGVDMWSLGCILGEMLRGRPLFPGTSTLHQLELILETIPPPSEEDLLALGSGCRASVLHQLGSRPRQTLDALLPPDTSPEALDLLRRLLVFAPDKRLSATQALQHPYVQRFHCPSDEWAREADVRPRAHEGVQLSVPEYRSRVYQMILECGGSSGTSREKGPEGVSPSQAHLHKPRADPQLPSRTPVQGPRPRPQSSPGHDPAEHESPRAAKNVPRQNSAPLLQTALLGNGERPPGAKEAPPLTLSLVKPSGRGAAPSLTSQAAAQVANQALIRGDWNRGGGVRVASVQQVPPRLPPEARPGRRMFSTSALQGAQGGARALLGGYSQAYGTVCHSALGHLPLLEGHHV
MST2, sequence (Q13188 whole entry): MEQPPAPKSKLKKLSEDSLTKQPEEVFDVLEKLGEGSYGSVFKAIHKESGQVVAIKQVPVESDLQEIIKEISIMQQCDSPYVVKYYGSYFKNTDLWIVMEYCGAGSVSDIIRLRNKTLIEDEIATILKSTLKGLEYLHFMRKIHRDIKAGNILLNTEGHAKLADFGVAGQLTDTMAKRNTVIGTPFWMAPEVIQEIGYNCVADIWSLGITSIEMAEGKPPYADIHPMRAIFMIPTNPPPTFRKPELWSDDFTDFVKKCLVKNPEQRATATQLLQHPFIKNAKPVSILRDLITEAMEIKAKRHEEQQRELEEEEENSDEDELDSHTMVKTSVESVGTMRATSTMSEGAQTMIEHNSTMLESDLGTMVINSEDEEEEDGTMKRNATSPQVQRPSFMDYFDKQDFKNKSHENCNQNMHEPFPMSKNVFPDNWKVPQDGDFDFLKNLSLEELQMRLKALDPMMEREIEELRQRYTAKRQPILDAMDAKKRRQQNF
TSSK1, sequence (Q9BXA7 whole entry): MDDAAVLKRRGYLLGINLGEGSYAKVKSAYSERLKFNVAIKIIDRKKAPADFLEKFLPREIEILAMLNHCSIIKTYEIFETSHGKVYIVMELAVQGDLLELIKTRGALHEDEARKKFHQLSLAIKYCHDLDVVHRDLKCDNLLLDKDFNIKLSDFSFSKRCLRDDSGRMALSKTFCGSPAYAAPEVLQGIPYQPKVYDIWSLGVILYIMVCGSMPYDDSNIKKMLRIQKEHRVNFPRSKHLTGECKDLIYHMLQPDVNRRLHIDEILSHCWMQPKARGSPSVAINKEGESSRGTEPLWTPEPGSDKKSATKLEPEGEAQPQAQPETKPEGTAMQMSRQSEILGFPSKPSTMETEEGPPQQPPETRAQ

Compound | remaining activity at 1 µM (BTK) [%] | remaining activity at 1 µM (MARK4) [%] | remaining activity at 1 µM (SGK1) [%] | remaining activity at 1 µM (CAMK1) [%] | remaining activity at 1 µM (ROCK 2) [%] | remaining activity at 1 µM (BRK) [%] | remaining activity at 1 µM (TSSK1) [%] | remaining activity at 1 µM (ERK8) [%] | remaining activity at 1 µM (SRPK1) [%] | remaining activity at 1 µM (TBK1) [%] | remaining activity at 1 µM (LKB1) [%] | remaining activity at 1 µM (IKKb) [%] | remaining activity at 1 µM (TAO1) [%] | remaining activity at 1 µM (RIPK2) [%] | remaining activity at 1 µM (MNK1) [%] | half-life at 1 µM [1] [min] | remaining activity at 1 µM (DAPK1) [%] | remaining activity at 1 µM (IRR) [%] | % activity remaining (PHK) [%] | inhibition at 1 µM (CDK4/cyclin D1) [%] | other results
CC(C)N1CCN(c2ccc(Nc3nc(OCC4CCOC(C)(C)C4)c4nc[nH]c4n3)cc2)CC1 (stereo not shown) [Compound 20] | 68 | 59 | 126 | 95 | 36 | 58 | 24 | 32 | 114 | 27 | 96 | 97 | 94 | 48 | 101 | 41.8 | 69 | 83 | 45 | 63 | remaining activity at 1 µM (MINK1): 71%; remaining activity at 1 µM (MEKK1): 79%; remaining activity at 1 µM (PDK1): 42%; remaining activity at 1 µM (MST2): 71%; Papp at 60 min, 10 µM (MDR1 (P-gp); dog): 1.79 ×10⁻⁶ cm/s; efflux ratio at 60 min, 10 µM (MDR1 (P-gp); dog): 19.7; remaining activity at 1 µM (EPH-B1): 73%; remaining activity at 1 µM (CK2): 116%; remaining activity at 1 µM (PAK5): 59%
CC(C)N1CCN(c2ccc(Nc3nc(OCC4CC4)c4cc[nH]c4n3)cc2)CC1 [Compound 23] | 40 | 26 | 113 | 51 | 25 | 51 | 14 | 52 | 103 | 46 | 90 | 89 | 46 | 77 | 106 | 22.8 | 18 | 48 | 16 | 39 | remaining activity at 1 µM (MINK1): 23%; remaining activity at 1 µM (MEKK1): 88%; remaining activity at 1 µM (PDK1): 66%; remaining activity at 1 µM (MST2): 45%; efflux ratio at 60 min, 10 µM (MDR1 (P-gp); dog): 1.5; Papp at 60 min, 10 µM (MDR1 (P-gp); dog (canine)): 4.5 ×10⁻⁶ cm/s; remaining activity at 1 µM (EPH-B1): 102%; remaining activity at 1 µM (CK2): 50%; remaining activity at 1 µM (PAK5): 34%

From publication PMC12621045, “Development of Purine and Pyrrolopyrimidine Scaffolds as Potent, Selective, and Brain Penetrant NUAK1 Inhibitors” (ACS Medicinal Chemistry Letters, 2025)
